Assay results taken from patent US20050171190A1, “Substituted 5-chroman-5-YL-ethylamine compounds and their use for the treatment of glaucoma” (Alcon, Inc., priority 2002, published 2005).
Read-outs that look alike come from different tables or passages of the source.

Key:
5-HT2 receptors = settings: cited from earlier work
5-HT2A receptor [1] = molecular target: 5-HT2A receptor (Homo sapiens, UniProt P28223); settings: cited from earlier work
[2] = drug discrimination studies; cited from earlier work
5-HT2C receptor = molecular target: T1, 5-HT2C receptor (Homo sapiens, UniProt P28335); settings: cited from earlier work
T1 sequence (P28335 33-458): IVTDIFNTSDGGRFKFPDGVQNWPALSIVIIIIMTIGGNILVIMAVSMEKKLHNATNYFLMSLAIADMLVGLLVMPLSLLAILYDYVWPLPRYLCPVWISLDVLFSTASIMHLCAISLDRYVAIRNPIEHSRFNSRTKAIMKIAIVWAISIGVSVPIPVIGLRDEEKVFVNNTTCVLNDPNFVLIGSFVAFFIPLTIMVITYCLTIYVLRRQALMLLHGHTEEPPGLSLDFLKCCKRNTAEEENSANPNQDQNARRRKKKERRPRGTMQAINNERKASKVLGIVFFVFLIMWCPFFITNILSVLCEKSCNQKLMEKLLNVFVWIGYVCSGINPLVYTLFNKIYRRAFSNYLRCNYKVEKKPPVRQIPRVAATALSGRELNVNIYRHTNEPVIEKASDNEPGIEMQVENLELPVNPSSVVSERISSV

[3] = monkey; due to its α1A receptor activity; cited from earlier work
[4] = rabbits; cited from earlier work
5-HT2A Receptor [5] = experiment: 5-HT2 receptor binding assay ([125I]DOI competition); parameters: species or system rat or human; settings: inhibition of [125I]DOI binding, cerebral cortex homogenates
Experimental: Aliquots of post mortem rat or human cerebral cortex homogenates (400 μL) dispersed in 50 mM Tris-HCl buffer (pH 7.4) are incubated with [125I]DOI (80 pM final) in the absence or presence of methiothepin (10 μM final) to define total and non-specific binding, respectively, in a total volume of 0.5 mL. The assay mixture is incubated for 1 hour at 23° C. in polypropylene tubes and the assays terminated by rapid vacuum filtration over Whatman GF/B glass fiber filters previously soaked in 0.3% polyethyleneimine using ice-cold buffer. Test compounds (at different concentrations) are substituted for methiothepin. Filter-bound radioactivity is determined by scintillation spectrometry on a beta counter. The data are analyzed using a non-linear, iterative curve-fitting computer program (Bowen et al. 1995) to determine the compound affinity parameter. The concentration of the compound needed to inhibit the [125I]DOI binding by 50% of the maximum is termed the IC50 value.

5-HT2A Receptor [6] = molecular target: T2, 5-HT2A Receptor (Rattus norvegicus, UniProt P14842); experiment: 5-HT2 functional assay: [Ca2+]i mobilization (FLIPR); type: cell-based
T2 construct: endogenous in cells; host or cells: A7r5 rat vascular smooth muscle cells
T2 sequence (P14842 whole entry): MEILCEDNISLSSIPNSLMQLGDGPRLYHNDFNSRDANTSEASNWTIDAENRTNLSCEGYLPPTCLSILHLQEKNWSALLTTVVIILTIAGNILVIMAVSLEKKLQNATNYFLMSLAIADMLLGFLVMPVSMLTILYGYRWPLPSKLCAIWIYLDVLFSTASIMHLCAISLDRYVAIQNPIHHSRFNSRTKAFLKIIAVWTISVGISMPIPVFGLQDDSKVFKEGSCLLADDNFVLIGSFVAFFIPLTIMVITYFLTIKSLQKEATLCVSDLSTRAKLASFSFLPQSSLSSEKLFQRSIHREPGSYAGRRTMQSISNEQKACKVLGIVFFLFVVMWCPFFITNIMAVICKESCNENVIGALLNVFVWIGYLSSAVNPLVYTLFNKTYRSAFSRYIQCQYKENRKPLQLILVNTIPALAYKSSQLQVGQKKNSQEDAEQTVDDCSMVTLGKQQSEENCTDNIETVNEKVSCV
Experimental: The receptor-mediated mobilization on intracellular calcium ([Ca2+]i) was studied using the Fluorescence Imaging Plate Reader (FLIPR) instrument. Rat vascular smooth muscle cells, A7r5, were grown in a normal media of DMEM/10% FBS and 10 μg/mL gentamycin. Confluent cell monolayers were trypsinized, pelleted, and re-suspended in normal media. Cells were seeded in a 50 μL volume at a density of 20,000 cells/well in a black wall, 96-well tissue culture plate and grown for 2 days.
On the day of the experiment, one vial of FLIPR Calcium Assay Kit dye was re-suspended in 50 mL of a FLIPR buffer consisting of Hank's Balanced Salt Solution (HBSS), 20 mM HEPES, and 2.5 mM probenecid, pH 7.4. […]
The compound plate and cell plate were placed in the FLIPR instrument. At the beginning of an experimental run, a signal test was performed to check the basal fluorescence signal from the dye-loaded cells and the uniformity of the signal across the plate. The basal fluorescence was adjusted between 8000-12000 counts by modifying the exposure time, the camera F-stop, or the laser power. […] Fluorescence data were collected in real-time at 1.0 sec intervals for the first 60 secs and at 6.0 sec intervals for an additional 120 secs. Responses were measured as peak fluorescence intensity minus basal and where appropriate were expressed as a percentage of a maximum 5-HT-induced response. […]

Chain of 5-HT2A receptor (P28223 whole entry): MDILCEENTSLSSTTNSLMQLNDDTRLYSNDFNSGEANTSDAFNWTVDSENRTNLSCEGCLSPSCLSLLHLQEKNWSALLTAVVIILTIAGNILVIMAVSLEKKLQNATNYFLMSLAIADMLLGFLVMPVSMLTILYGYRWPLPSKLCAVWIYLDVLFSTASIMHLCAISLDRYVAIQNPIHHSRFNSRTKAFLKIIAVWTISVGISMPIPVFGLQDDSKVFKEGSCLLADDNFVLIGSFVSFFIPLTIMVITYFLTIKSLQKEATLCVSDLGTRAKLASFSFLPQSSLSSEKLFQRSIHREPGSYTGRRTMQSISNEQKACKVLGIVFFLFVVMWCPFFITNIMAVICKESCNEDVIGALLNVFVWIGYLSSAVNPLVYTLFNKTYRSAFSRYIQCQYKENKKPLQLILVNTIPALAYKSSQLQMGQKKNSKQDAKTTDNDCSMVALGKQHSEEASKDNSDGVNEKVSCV

In the case of `COc1cc(CCN)c2c(c1OC)OCC2` [2-(6,7-Dimethoxy-2,3-dihydro-benzofuran-4-yl)-ethylamine], the “affinity for 5-HT2 receptors” value (5-HT2 receptors) is given as “have affinity”.

In the case of `COc1cc(Br)c2c(c1CC(C)N)CCO2` (stereo not drawn) [2-(7-bromo-5-methoxy-2,3-dihydro-benzofuran-4-yl)-1-methylethylamine], the “affinity for the 5-HT2A receptor” value (5-HT2A receptor [1]) is given as “high affinity” and the “generalization to LSD” value [2] is given as “generalize to LSD”.

In the case of `CC(N)Cc1cccc2occc12` (stereo not drawn) [2-benzofuran-4-yl-1-methylethylamine], the “agonist activity at the 5-HT2C receptor” value (5-HT2C receptor) is listed as “agonist activity”.

For `COc1ccccc1N1CCN(CCCNc2c(C)c(=O)n(C)c(=O)n2C)CC1` [5-methylurapidil], the “effect on IOP” value [3] is given as “lowers IOP”.

For `CCCN(CCC)C1CCc2cccc(O)c2C1` (stereo not drawn) [Compound 8-OH-DPAT, 8-hydroxy-2-(di-n-propylamino)tetralin], the “effect on IOP” value [4] is given as “reduces IOP”.

In the case of `COc1cc(CC(C)N)c(OC)cc1I` (stereo not drawn) [DOI], the IC50 (5-HT2A Receptor [5]) is reported as 0.33 nM, the “Efficacy (Emax, %)” value (5-HT2A Receptor [6]; A7r5 cells, percentage of a maximum 5-HT-induced response) is reported as 31% and the EC50 (5-HT2A Receptor [6]; A7r5 rat vascular smooth muscle cells, [Ca2+]i mobilization) is reported as 30.2 nM.
